Test results published in publication PMC5060005 (Bioorganic & medicinal chemistry, 2016).
Counter-ions that a name gives are not always drawn. Like-named read-outs stand apart in the source and are kept apart here.

Columns and labels:
5-HT7 receptor = 5-HT7 receptor (Homo sapiens, UniProt P34969)
5-HT2C receptor = 5-HT2C receptor (Homo sapiens, UniProt P28335); conditions: MTA = Missed 50% of threshold inhibition; Ki without SEM within 20% of mean
5-HT2B receptor = 5-HT2B receptor (Homo sapiens, UniProt P41595); conditions: MTA = Missed 50% of threshold inhibition; Ki without SEM within 20% of mean
Chain of 5-HT2B receptor (P41595 whole entry): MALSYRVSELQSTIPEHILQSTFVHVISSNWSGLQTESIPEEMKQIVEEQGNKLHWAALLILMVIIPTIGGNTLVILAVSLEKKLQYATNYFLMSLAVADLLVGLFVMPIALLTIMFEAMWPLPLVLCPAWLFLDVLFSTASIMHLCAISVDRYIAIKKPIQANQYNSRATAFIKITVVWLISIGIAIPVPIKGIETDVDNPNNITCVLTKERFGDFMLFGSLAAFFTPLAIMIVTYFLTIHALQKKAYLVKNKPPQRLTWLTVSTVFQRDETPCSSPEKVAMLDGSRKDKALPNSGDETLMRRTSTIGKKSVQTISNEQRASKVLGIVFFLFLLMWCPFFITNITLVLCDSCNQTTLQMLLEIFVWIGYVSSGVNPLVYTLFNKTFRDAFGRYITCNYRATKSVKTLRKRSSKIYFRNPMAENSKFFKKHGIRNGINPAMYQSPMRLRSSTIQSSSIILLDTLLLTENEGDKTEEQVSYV

SERT = SERT (Homo sapiens, UniProt P31645); conditions: MTA = Missed 50% of threshold inhibition; Ki without SEM within 20% of mean
Chain of SERT (P31645 whole entry, species assumed): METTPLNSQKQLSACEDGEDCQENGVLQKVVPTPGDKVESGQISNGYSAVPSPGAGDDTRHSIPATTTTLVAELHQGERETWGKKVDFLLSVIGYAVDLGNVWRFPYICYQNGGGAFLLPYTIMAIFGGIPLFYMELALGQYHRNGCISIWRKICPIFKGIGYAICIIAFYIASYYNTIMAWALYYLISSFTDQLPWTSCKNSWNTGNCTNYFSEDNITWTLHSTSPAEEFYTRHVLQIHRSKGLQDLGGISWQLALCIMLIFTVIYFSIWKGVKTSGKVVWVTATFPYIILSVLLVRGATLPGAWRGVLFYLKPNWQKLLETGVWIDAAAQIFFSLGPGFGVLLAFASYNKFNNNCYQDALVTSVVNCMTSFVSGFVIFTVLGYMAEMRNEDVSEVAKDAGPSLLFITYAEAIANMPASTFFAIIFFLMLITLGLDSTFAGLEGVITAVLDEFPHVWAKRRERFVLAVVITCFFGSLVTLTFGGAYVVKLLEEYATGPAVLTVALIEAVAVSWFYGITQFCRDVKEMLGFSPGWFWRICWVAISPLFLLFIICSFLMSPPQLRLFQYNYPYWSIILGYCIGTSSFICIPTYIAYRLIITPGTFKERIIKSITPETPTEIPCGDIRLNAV

histamine H1 receptor = histamine H1 receptor (Homo sapiens, UniProt P35367); conditions: MTA = Missed 50% of threshold inhibition; Ki without SEM within 20% of mean
Chain of histamine H1 receptor (P35367 whole entry, species assumed): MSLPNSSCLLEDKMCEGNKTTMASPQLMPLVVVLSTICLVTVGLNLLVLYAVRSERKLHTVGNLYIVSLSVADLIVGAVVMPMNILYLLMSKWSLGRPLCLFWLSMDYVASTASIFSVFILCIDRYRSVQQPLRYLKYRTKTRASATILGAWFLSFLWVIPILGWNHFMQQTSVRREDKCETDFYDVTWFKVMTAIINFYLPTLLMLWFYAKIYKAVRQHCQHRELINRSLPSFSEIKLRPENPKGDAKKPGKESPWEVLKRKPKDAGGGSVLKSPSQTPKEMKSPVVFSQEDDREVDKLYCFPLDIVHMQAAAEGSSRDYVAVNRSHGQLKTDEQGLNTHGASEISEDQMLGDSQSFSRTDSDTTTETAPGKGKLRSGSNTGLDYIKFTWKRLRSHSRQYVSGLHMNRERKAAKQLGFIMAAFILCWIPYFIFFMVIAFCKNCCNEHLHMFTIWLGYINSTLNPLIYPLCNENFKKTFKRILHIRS

D2 receptor = D2 receptor (Homo sapiens, UniProt P14416); conditions: MTA = Missed 50% of threshold inhibition; Ki without SEM within 20% of mean
Chain of D2 receptor (P14416 whole entry): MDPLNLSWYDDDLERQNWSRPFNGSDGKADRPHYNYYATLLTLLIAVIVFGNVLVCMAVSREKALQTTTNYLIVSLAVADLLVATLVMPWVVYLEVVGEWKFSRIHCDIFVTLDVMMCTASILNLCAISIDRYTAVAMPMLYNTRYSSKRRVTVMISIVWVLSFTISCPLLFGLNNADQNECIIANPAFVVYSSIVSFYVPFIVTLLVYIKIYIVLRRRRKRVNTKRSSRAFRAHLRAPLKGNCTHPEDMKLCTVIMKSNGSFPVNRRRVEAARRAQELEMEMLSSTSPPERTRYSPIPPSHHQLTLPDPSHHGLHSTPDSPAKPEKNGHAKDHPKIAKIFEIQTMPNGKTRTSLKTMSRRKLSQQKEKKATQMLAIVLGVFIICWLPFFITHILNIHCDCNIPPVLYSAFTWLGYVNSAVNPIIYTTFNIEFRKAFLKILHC

5-HT2A receptor = 5-HT2A receptor (Homo sapiens, UniProt P28223)
Chain of 5-HT2A receptor (P28223 whole entry): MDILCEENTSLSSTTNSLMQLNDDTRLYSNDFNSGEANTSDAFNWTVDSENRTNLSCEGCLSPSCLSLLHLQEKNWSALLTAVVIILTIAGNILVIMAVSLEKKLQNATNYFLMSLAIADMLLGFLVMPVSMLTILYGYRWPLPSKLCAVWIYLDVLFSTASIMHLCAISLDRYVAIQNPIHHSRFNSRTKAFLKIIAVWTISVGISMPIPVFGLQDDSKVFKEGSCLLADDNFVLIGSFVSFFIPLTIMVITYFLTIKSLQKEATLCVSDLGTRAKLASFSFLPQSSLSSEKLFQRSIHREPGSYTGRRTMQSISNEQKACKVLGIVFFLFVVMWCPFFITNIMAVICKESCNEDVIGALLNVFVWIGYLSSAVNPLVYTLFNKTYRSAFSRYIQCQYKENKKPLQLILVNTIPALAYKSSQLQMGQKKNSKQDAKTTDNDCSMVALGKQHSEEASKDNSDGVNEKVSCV

5-HT1A receptor = 5-HT1A receptor (Homo sapiens, UniProt P08908)
Chain of 5-HT1A receptor (P08908 whole entry): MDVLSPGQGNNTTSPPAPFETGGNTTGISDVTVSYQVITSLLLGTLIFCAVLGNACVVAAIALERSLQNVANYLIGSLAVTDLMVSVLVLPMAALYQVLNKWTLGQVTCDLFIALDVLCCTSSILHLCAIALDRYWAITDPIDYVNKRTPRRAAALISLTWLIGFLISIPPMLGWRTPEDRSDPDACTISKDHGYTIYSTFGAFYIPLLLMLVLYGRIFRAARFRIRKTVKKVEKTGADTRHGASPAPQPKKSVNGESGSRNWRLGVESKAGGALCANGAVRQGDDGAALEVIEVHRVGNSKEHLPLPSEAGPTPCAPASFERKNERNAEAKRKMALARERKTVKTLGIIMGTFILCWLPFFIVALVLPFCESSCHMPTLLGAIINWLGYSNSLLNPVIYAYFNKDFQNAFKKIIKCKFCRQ

D3 receptor = D3 receptor (Homo sapiens, UniProt P35462); conditions: MTA = Missed 50% of threshold inhibition; Ki without SEM within 20% of mean
Chain of D3 receptor (P35462 whole entry): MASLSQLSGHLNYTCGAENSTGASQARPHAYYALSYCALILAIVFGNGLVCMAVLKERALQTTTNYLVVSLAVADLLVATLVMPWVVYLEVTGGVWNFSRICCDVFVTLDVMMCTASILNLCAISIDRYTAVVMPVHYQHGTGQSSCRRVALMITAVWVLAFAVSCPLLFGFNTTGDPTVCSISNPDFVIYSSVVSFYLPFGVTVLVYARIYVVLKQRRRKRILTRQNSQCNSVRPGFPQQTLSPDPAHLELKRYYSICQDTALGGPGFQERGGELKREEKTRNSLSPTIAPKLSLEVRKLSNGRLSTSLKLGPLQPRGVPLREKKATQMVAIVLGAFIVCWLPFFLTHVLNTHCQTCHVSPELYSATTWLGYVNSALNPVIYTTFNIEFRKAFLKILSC

[1] = MTA = Missed 50% of threshold inhibition, Ki without SEM within 20% of mean

Chain of 5-HT2C receptor (P28335 33-458): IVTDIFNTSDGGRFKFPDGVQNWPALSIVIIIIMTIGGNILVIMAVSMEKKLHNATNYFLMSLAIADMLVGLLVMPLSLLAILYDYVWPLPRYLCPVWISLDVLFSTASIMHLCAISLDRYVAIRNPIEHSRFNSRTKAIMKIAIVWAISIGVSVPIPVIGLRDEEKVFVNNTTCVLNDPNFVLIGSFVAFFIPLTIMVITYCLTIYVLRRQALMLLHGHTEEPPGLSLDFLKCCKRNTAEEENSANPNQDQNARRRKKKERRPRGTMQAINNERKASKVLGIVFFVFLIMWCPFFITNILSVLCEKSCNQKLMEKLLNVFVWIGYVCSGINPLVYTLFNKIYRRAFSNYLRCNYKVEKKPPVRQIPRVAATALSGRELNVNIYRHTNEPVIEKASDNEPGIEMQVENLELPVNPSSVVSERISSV
Chain of 5-HT7 receptor (P34969 whole entry): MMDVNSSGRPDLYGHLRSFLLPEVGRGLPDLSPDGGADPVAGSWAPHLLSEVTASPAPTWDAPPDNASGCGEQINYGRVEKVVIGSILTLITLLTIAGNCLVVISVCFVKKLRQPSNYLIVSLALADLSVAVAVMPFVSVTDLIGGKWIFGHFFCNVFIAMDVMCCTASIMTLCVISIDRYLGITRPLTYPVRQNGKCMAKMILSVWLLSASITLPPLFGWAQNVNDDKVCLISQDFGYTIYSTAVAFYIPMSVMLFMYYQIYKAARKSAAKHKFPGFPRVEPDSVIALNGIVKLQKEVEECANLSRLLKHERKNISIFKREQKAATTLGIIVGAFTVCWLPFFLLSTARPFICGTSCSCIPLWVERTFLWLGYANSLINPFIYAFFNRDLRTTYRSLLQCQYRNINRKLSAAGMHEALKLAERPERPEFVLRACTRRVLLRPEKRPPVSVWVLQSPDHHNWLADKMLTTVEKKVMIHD

Ki 5-HT2C (5-HT2C receptor) | Ki 5-HT2B (5-HT2B receptor) | Ki SERT (SERT) | Structure (SMILES) | further results
 |  |  | O=C1c2ccccc2C(=O)N1CCCCN1CCC2CCCCC2C1 (centres unmarked) [Compound 2, 2-(4-(Octahydroisoquinolin-2(1H)-yl)butyl)isoindoline-1,3-dione] | decrease in binding affinity to the 5-HT7R (5-HT7 receptor; relative to compound 1): ~40 fold
MTA |  |  | Cl.Fc1ccc2c(c1)CC(CCN1CCc3ccccc3C1)C2 (centres unmarked) [Compound 5, 2-(2-(5-Fluoro-2,3-dihydro-1H-inden-2-yl)ethyl)-1,2,3,4-tetrahydroisoquinoline hydrochloride] | 
MTA | MTA |  | c1ccc2c(c1)CCN(CCCCc1c[nH]c3ccccc13)C2 [Compound 4, 2-(4-(1H-indol-3-yl)butyl)-1,2,3,4-tetrahydroisoquinoline] | 
 |  | MTA | Cl.Fc1ccc(SCCCN2CCc3ccccc3C2)cc1 [Compound 8, 2-(3-((4-Fluorophenyl)thio)propyl)-1,2,3,4-tetrahydroisoquinoline hydrochloride] | 
MTA |  | MTA | Cl.Fc1ccc(OCCCN2CCc3ccccc3C2)cc1 [Compound 7, 2-(3-(4-Fluorophenoxy)propyl)-1,2,3,4-tetrahydroisoquinoline hydrochloride] | 
MTA |  | MTA | Cl.[O-][S+](CCCN1CCc2ccccc2C1)c1ccc(F)cc1 (centres unmarked) [Compound 9, 2-(3-((4-Fluorophenyl)sulfinyl)propyl)-1,2,3,4-tetrahydroisoquinoline hydrochloride] | 
MTA |  |  | O=C(CCCN1CCc2ccccc2C1)c1ccc(O)cc1 [Compound 15, 4-(3,4-Dihydroisoquinolin-2(1H)-yl)-1-(4-hydroxyphenyl)butan-1-one hydrochloride] | 
 |  | MTA | O=C(CCCN1CCc2ccccc2C1)c1ccc(F)cc1 [Compound 10, 4-(3,4-Dihydroisoquinolin-2(1H)-yl)-1-(4-fluorophenyl)butan-1-one] | increase in binding affinity at the 5-HT1AR (5-HT1A receptor; relative to compound 9): 3 fold
 | MTA | MTA | O=C1c2ccccc2C(=O)N1CCCCN1Cc2ccccc2C1 [Compound 3, 2-(4-(Isoindolin-2-yl)butyl)isoindoline-1,3-dione] | Ki H1 (histamine H1 receptor): MTA; Ki D2 (D2 receptor): MTA; Ki D3 (D3 receptor): MTA; Ki 5-HT2A (5-HT2A receptor; [1]): MTA; Ki 5-HT1A (5-HT1A receptor; [1]): MTA; Ki 5-HT7 (5-HT7 receptor; [1]): MTA

Structure (SMILES) | Ki 5-HT2C (5-HT2C receptor) | Ki 5-HT2B (5-HT2B receptor) | Ki SERT (SERT) | further results
O=C1c2ccccc2C(=O)N1CCCCN1CCc2ccccc2C1 [Compound 1, 2-(4-(3,4-Dihydroisoquinolin-2(1H)-yl)butyl)isoindoline-1,3-dione] | MTA | MTA | MTA | Ki H1 (histamine H1 receptor): MTA; Ki D2 (D2 receptor): MTA; Ki 5-HT2A (5-HT2A receptor): MTA
